Test results from US6143763A, “Carbostyril derivatives” (D. Western Therapeutics Institiute, priority 1995, dated 2000).

Columns and labels:
[1] = target: T1, cGMP-inhibited cAMP phosphodiesterase (PDE3) (Homo sapiens, UniProt Q14432); experiment: cGMP-inhibited cAMP phosphodiesterase (PDE3) inhibitory activity; assay type: biochemical; conditions: 0.4 μM [8-3H]cAMP, pH 8.0, 30° C., 15 minutes; recombinant enzyme from Sf9; read-out: PDE inhibitory activity IC50
T1 construct: made in house; host or cells: insect cell Sf9, baculovirus expression system

[2] = tested on: death induced by pulmonary infarction in mice; experiment: Antithrombotic activity: inhibition of death by collagen-induced pulmonary infarction in mice; assay type: in vivo, male ICR mice; conditions: Mus musculus, 1 h; 30 mg/kg oral, 10 minutes before i.v. collagen; lethality in an hour; read-out: Pulmonary infarction inhibitory activity
Text: Pharmacological Experiment 2 Antithrombotic activity
Antithrombotic activity of the test compounds was estimated by an inhibitory activity of the test compound by oral administration against death induced by pulmonary infarction in mice which was introduced by intravenous administration of collagen (pulmonary infarction inhibitory activity).
Male ICR mice (5-week old, body weight; about 25 g) was fasted overnight, and separated into groups (15 mice per each group) and numbered. A test compound solution, which was prepared by suspending a test compound in 1% hydroxypropylmethyl cellulose 2910 TC-5 (HPMC, manufactured by Shin-etsu Chemical Co., Ltd.), was orally administered to the mice, and 10 minutes thereafter, a collagen solution (the method for preparation thereof and a dose thereof are explained hereafter) was injected to the mice at the tail vein at the constant rate. The lethality of the mice was determined by the number of mice which were died in an hour after the administration of collagen solution. The antithrombotic activity of the test compound was estimated by the inhibitory rate (%) of the lethality of the mice. The collagen solution was prepared by dissolving collagen (Type III, manufactured by Sigma Chemical Ltd.) in 0.05 M acetic acid solution containing 2 mM calcium chloride and 5% glucose at 4° C. so that the final concentration of collagen was adjusted to 2.5 mg/ml, and then the pH value thereof was adjusted to pH 7.4 with sodium hydroxide the day before the experiment. The collagen solution was incubated with stirring at 37° C. for two hours, and then further stirred at room temperature overnight. Just before the experiment, the pH value of the collagen solution was adjusted again to pH 7.4. The amount of the collagen solution which was injected at the tail vein was previously determined so that the lethality by pulmonary infarction induced thereby became about 75%.

[3] = tested on: platelet aggregation (ADP); experiment: Platelet aggregation inhibitory activity, ADP-induced (Born's turbidimetry, rabbit PRP); assay type: cell-based, male rabbit (NZW); conditions: Oryctolagus cuniculus, ADP 7.5 μM final, 37° C.
Protocol: (§1) Pharmacological Experiment 1 Platelet aggregation inhibitory activity
(§2) (1) Preparation of platelet rich plasma (PRP):
(§3) The blood was collected from the carotid of a male rabbit without anesthesia (NZW species, body weight; 2-3 kg) with mixing thereof with 1/10 volume of citric acid. The blood thus obtained was separated and put into plastic test tubes (each about 7 ml), and centrifuged at 900 rpm for 15 minutes at room temperature to give a turbid supernatant as a platelet rich plasma (PRP). The residue from which PRP is separated was centrifuged at 3000 rpm for 10 minutes, and the supernatant was collected as a platelet poor plasma (PPP). The PRP was diluted with PPP so that the concentration thereof was adjusted to […], and used in the platelet aggregation inhibitory activity test.
(§4) (2) Method for platelet aggregation inhibitory activity test:
(§5) The platelet aggregation was tested according to Born's turbidimetry. That is, a test compound was dissolved in dimethylformamide, and the test compound solution (1 μl) thus obtained was put into a cuvette, and thereto was further added PRP (200 μl). Immediately thereafter, the cuvette was set into an apparatus for determining platelet aggregation activity, PAM-8T (manufactured by Mevanix Inc.), and the mixture was incubated at 37° C. Precisely three minutes thereafter, a solution of adenosine diphosphate (ADP, PA test ADP [MCM], purchased by MC Medical Ltd.) in physiological saline solution or a collagen solution (Collagenreagent Horm, purchased by MC Medical Ltd.) (20 μl) was added thereto. The final concentration of the ADP solution or the collagen solution was 7.5 μM or 20 μg/ml, respectively.
(§6) The maximum aggregation rate and the aggregation inhibitory rate were calculated by the following equations. [formula]
(§7) IC50, which is a concentration of the test compound being required to inhibit the platelet aggregation reaction by 50%, was determined from the aggregation inhibitory rates at two different concentrations of a test compound.

[4] = tested on: left common carotid artery injured by balloon; experiment: Intima thickening inhibitory activity after balloon injury (3H-thymidine in carotid artery); assay type: in vivo, male SD rats; conditions: Rattus norvegicus; dose 30 mg/kg, oral
Protocol: Pharmacological Experiment 3 Intima thickening inhibitory activity
Male SD rats (6-week old) were separated into groups (8 rats per each group) and numbered. A test compound solution, which was prepared by suspending a test compound in 1% hydroxypropylmethyl cellulose 2910 TC-5 (HPMC, manufactured by Shin-etsu Chemical Co., Ltd.) was orally administered to the rats. In the control group, 1% HPMC solution was orally administered instead of the test compound solution. One or two hours thereafter, two french balloon catheters (manufactured by Baxter Travenol Inc.) were inserted into the left common carotid artery of the rats, and the artery was injured by abrading five times with a balloon. The day of balloon abrasion was considered as Day 0. On the following day (Day 1), a test compound was orally administered to the rats two times a day (in the morning and in the evening). On Day 2, 1.48 MBq/ml of ^3 H-thymidine (dose: 5 ml/kg, manufactured by NEN Research Products, Ltd.) was injected at the tail vein of the rats about one hour after the administration of the test compound so that the time after the balloon injury was fixed to the same in each rat. Precisely 45 minutes after the injection of ^3 H-thymidine at the tail veil, the common carotid artery of the rats was taken out.
In the test compound-treated group, only the left common carotid artery which was injured by balloon was taken out, and in the control group, both the left and right common carotid arteries were taken out. The common carotid artery thus obtained was cut to pieces of exact 1 cm long, and the unnecessary portions such as the outer membrane or the nerves were completely removed. The common carotid artery was put into a glass vial, and thereto was added a 0.5 N sodium hydroxide (0.5 ml), and the mixture was incubated at 37° C. overnight to be solubilized. The mixture was neutralized with a 5 N hydrochloric acid (0.05 ml), and thereto was further added an aqueous hydrogen peroxide solution (0.1 ml). Aquasol II (10 ml, manufactured by Du Pont Co.) was added thereto, and the mixture was well stirred and then allowed to stand for 30 minutes. The radioactivity of tritium in the mixture was counted by liquid scintillation counter. The intima thickening inhibitory activity of the test compound was calculated by the following equation. [formula] L (c): The amount of tritium in the left common carotid artery in the control group (dpm)
R (c): The amount of tritium in the right common carotid artery in the control group (dpm)
L: The amount of tritium in the left common carotid artery in the test compound-treated group (dpm)

[5] = tested on: platelet aggregation (collagen); experiment: Platelet aggregation inhibitory activity, collagen-induced (Born's turbidimetry, rabbit PRP); assay type: cell-based, male rabbit (NZW); conditions: Oryctolagus cuniculus, collagen 20 μg/ml final, 37° C.
Protocol: as §1, §2, §3, §4, §5, §6, §7

T1 sequence (Q14432 whole entry): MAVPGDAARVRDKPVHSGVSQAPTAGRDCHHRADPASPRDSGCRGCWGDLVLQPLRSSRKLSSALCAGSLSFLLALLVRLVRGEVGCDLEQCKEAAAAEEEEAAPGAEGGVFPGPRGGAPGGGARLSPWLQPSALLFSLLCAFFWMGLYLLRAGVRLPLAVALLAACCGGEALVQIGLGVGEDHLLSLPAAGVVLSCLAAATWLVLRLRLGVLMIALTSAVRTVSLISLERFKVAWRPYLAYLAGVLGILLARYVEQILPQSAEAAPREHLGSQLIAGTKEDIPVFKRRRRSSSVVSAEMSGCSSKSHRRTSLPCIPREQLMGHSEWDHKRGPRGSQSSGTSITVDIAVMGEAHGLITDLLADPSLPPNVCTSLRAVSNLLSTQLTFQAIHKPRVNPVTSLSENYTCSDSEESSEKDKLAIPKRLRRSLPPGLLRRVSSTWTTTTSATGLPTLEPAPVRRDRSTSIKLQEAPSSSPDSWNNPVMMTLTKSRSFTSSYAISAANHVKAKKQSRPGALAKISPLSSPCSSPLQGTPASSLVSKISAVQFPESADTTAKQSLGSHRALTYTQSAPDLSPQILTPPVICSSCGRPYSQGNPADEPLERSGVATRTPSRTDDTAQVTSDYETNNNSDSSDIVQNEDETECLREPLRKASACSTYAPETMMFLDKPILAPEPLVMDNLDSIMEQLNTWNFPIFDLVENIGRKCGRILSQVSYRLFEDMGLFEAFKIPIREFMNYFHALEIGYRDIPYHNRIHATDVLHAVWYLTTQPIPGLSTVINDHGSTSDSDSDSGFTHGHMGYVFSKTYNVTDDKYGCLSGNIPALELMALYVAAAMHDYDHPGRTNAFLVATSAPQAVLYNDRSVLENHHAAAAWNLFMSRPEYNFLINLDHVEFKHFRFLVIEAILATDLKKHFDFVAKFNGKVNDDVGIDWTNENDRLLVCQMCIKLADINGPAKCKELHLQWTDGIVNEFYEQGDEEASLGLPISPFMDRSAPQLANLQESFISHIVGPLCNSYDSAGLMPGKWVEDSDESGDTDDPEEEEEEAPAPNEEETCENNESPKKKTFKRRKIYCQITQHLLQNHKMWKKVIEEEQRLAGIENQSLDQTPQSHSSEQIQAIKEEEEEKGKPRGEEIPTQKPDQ

SMILES	IC50 [1]	inhibition in vivo at 30 mg/kg [2]	IC50 [3]	inhibition in vivo at 30 mg/kg [4]	IC50 [5]
CCC(O)CN(C(=O)NCCCOc1ccc2[nH]c(=O)ccc2c1)C1CCCCC1 (centres unmarked) [Ex. 10]	24.3 nM	74%	400 nM	34.2%	300 nM
CN(CCCOc1ccc2[nH]c(=O)ccc2c1)C(=O)N(C)C1CCCCC1 [Ex. 12, 6-[3-(1,3-dimethyl-3-cyclohexylureido)propoxy]carbostyril]	197 nM	100%	31600 nM	21.1%	20500 nM
O=C(NCCCOc1ccc2[nH]c(=O)ccc2c1)N(C1CC1)[C@@H]1CCCC[C@H]1OCCCO [Ex. 17, (R,R)-(-)-6-{3-[3-[trans-2-(3-hydroxypropoxy)cyclohexyl]-3-cyclopropylureido]propoxy}carbostyril]	60.8 nM	100%	140 nM	16%	2390 nM
CN(NC(=O)NCCCOc1ccc2[nH]c(=O)ccc2c1)C1CCCCC1 [Ex. 28]	0.826 nM	100%	110 nM	27.8%	100 nM
